The source of these data is patent publication US5760022A, “Pharmaceutical composition with improved bioavailability of inositol phosphate” (Perstorp AB, priority 1994, dated 1998).

A short description of the data set: bioavailability of IP3 in pigs: concentration of IP3 in blood samples and AUC after intravenous injection, intraduodenal/oral formulation and oral sodium salt. To be noted: pig, in vivo. Here is the method: The blood samples were assayed for the content of IP3 and these measurements were used for the calculation of the reference data as 100% of the substance is introduced into the blood stream after an intravenous injection. Another five pigs were given the composition comprising the mixture of 2,3-dihydroxypropyl octanoate and IP3 as an intraduodenal dosing. The animals were treated with Atropin and anaesthetized with Hypnodil®/Sedaperone® whereafter a laparotomy was carried out. Blood samples were collected at the time intervals mentioned above and the concentration of IP3 was determined in each sample. By calculating the area under the curve (AUC) from a graph where the concentration versus time is shown and comparing the obtained value with a similar calculation from the data after intravenous injection of the substance the bioavailability for this specific formulation is obtained.
Blood samples were collected at the same time intervals as above and the concentration of IP3 was determined. Following a similar procedure the AUC was determined.
Blood samples were collected and the concentration of IP3 were determined.

Counter-ions that a name gives are not always drawn.

As for `O=P(O)(O)O[C@@H]1[C@H](OP(=O)(O)O)[C@H](O)[C@@H](O)[C@H](O)[C@H]1OP(=O)(O)O` [sodium salt of IP3, D-myo-inositol-1,2,6-trisphosphate], the “Normalized AUC (%)” value is recorded as 3%. Also, for the setting “iv”, the “Normalized AUC (%)” value came out at 100%, the concentration at 0.25 h is 53700 nM, the concentration at 0.5 h was determined as 40000 nM and the concentration at 1 h worked out at 21600 nM. Also, where the note is “iv”, the concentration at 1.5 h is 12100 nM, the concentration at 4 h was 2600 nM and the concentration at 8 h was 600 nM. In addition, the “conc IP3” value (iv, 0 min) came out at 0 nM. Also, under “po”, the concentration at 0.5 h worked out at 600 nM, the concentration at 1.5 h was found to be 500 nM, the concentration at 2 h was determined as 600 nM and the concentration at 4 h stood at 400 nM. For the same compound, where the note is “po”, the concentration at 6 h was determined as 400 nM. In addition, for the setting “po, 0 min”, the “conc IP3” value is 0 nM. The “conc IP3” value (po, 480 min) was determined as 0 nM.
